Data reported in patent publication US6716829B2, “Aldosterone antagonist and cyclooxygenase-2 inhibitor combination therapy to prevent or treat inflammation-related cardiovascular disorders” (Pharmacia Corporation, priority 2000, dated 2004).
Where “and” joins values, the source holds several entries; their conditions need not be identical. Equal values may be shown once.

System: Transforming growth factor beta 1 (TGFβ1)
Test: Assay C: TGFβ1 mRNA by TaqMan RT-PCR
Type: in vivo, Male Sprague-Dawley rats
Settings: for TGF-β1 mRNA (AU): relative to cyclophilin expression, mean ± SEM, eplerenone dose 100 mg/kg/day; for TGF-β (AU): mRNA, individual rats, incl. rat marked * excluded from statistics
Protocol: The procedure of Assay B was expanded upon in a further study. […] Myocardial tissue from animals in each treatment group was examined after 7, 14, or 30 days of treatment.
Potassium chloride supplementation was added to the saline solution in order to prevent the potential hypokalemia associated with aldosterone excess.
At the time of the surgery, an Alzet 2002 osmotic minipump (Alza Corp., Palo Alto, Calif.) containing either vehicle (9% ethanol/87% propylene glycol/4% dH2O) or 1.0 mg/mL d-aldosterone (Sigma Chemical, St. Louis, Mo.) was inserted subcutaneously at the nape of the neck. Aldosterone was administered at a dose of 0.75 µg/hour. […] Animals were sacrificed from each group (n=8-13) after 7, 14, or 30 days of treatment.
The fluorogenic 5′-nuclease assay (TaqMan PCR) using Applied Biosystems' 7700 Sequence Detection System (Applied Biosystems, Foster City, Calif.) allowed for real time detection/quantitation of a specific gene by monitoring the increase in fluorescence of a gene-specific, dye-labeled oligonucleotide probe. Probes for target and reference genes were labeled at the 5′-end with a 6-carboxyfluorescein (6FAM) reporter dye and at the 3′-end with a 6-carboxy-N,N,N′,N′-tetramethylrhodamine (TAMRA) quencher dye. When the probe was annealed to the target gene, fluorescence of 6FAM was prevented by the close proximity of TAMRA. The exonuclease activity of Taq polymerase released the dyes from the oligonucleotide probe by displacing the probe from the target sequence resulting in fluorescence excitation in direct proportion to the amount of target message present. Data analysis was performed using the Sequence Detection System software from Applied Biosystems.
Primers and probes were designed using Oligo Primer Analysis Software, Version 5.0 (National Biosciences Inc. (NBI)-Wojciech Rychlik, Cascade, Colo.). Primers were synthesized by Life Technologies (Grand Island, N.Y.) and probes were synthesized by Applied Biosystems. Primer/probe sets were designed from known sequences of rat genes to be analyzed. All target gene values were normalized to a reference gene, constitutively expressed cyclophilin. Primer/probe sets sequences can be found in Table 8
RNA was extracted from frozen (−70° C.) left ventricle (LV) tissue (approximately 10-20 mg) using 1.5 mL RNA-STAT 60 according to manufacturer's instructions (Leedo Medical Laboratories, Inc., Houston, Tex.). Briefly, tissues were homogenized using a tissue homogenizer equipped with a 5 mm probe (Ultra-Turrax T8 Homogenizer, IKA Works, Inc. Wilmington, N.C.). Following homogenization, an equal volume of molecular grade chloroform (Sigma Chemical Co., St. Louis, Mo.) was incubated with periodic mixing for 10 min at room temperature. Samples were centrifuged at 12,000 g for 10 min and RNA was precipitated from the top layer by adding an equal volume of molecular grade isopropanol (Sigma Chemical Co.) followed by an overnight incubation at −80° C. RNA was pelleted by centrifugation at 12,000 g, washed with 75% ethanol, and solubilized in nuclease-free water (Promega, Madison, Wis.).
Double-stranded cDNA was synthesized by adding 400 ng RNA (4 uL) to a final volume of 20 uL containing 15% nuclease-free water (Promega, Madison, Wis.), 1×RT Buffer (Life Technologies, Grand Island, N.Y.), 10 mM DTT (Life Technologies), 0.5 mM each of dATP, dTTP, dGTP, dCTP (PE Biosystems, Foster City, Calif.), 2.5 μM Oligo d(T)15 (Oligo Therapeutics, Inc., Wilsonville, Oreg.), 40 units RNAsin (Promega), and 200 units SuperScript II Reverse Transcriptase (Life Technologies). The reactions were performed in thin-walled reaction tubes with caps (Applied Biosystems) to ensure accurate reaction temperatures.

Row | SMILES | TGF-β1 mRNA (AU) (after 7 days of treatment) | TGF-β1 mRNA (AU) (after 14 days of treatment) | TGF-β1 mRNA (AU) (after 30 days of treatment) | TGF-β (AU) (data used for Table 17 (7-day protocol), listed as Aldosterone + salt) | TGF-β (AU) (data used for Table 18 (14-day protocol), listed as Aldosterone + salt) | TGF-β (AU) (data used for Table 19 (30-day protocol), listed as Aldosterone + salt) | TGF-β (AU) (data used for Table 17 (7-day protocol), listed as Eplerenone + aldosterone + salt) | TGF-β (AU) (data used for Table 18 (14-day protocol), listed as Eplerenone + aldosterone + salt) | TGF-β (AU) (data used for Table 19 (30-day protocol), listed as Eplerenone + aldosterone + salt)
1 | C[C@]12CCC(=O)C=C1CC[C@@H]1[C@@H]2[C@@H](O)C[C@]2(C=O)[C@@H](C(=O)CO)CC[C@@H]12 [Aldosterone] | 1.35 | 1.27 | 1.33 | 1.23 AU and 0.98 AU and 1.31 AU and 1.89 AU and 1.22 AU and 1.45 AU and 1.47 AU and 1.21 AU and 1.35 AU | 1.26 AU and 1.85 AU and 0.55 AU and 1.91 AU and 1.49 AU and 1.18 AU and 1.32 AU and 1.27 AU and 0.56 AU and 1.29 AU | 1.41 AU and 1.27 AU and 2.11 AU and 1.20 AU and 1.95 AU and 1.49 AU and 0.83 AU and 0.54 AU and 1.21 AU | – | – | –
2 | COC(=O)[C@@H]1CC2=CC(=O)CC[C@]2(C)[C@@]23O[C@@H]2C[C@@]2(C)[C@@H](CC[C@@]24CCC(=O)O4)[C@H]13 [Eplerenone] | 0.99 | 1.26 | 1.32 | – | – | – | 0.80 AU (2×) and 0.81 AU and 0.51 AU and 1.31 AU and 1.02 AU and 0.61 AU and 0.84 AU and 1.51 AU and 1.64 AU | 0.58 AU and 0.62 AU and 1.04 AU and 1.42 AU and 1.29 AU and 1.49 AU and 0.71 AU and 1.21 AU and 1.44 AU and 1.69 AU and 2.41 AU | 1.00 AU and 1.49 AU and 1.40 AU and 1.31 AU and 0.96 AU and 1.93 AU and 1.54 AU and 1.32 AU and 0.89 AU and 1.35 AU
